In PMC7581728, “Sapitinib Reverses Anticancer Drug Resistance in Colon Cancer Cells Overexpressing the ABCB1 Transporter” (Frontiers in Oncology, 2020):

Biological target: T1, ABCB1 (Homo sapiens, UniProt P08183)
T1 construct: ABCB1 transporter in membrane vesicles of High Five insect cells
Experiment: vanadate-sensitive ATPase stimulation in ABCB1 membrane vesicles ([…] maximum); also raised [3H]-paclitaxel accumulation in SW620/Ad300 cells
Format: biochemical

T1 sequence (P08183 whole entry): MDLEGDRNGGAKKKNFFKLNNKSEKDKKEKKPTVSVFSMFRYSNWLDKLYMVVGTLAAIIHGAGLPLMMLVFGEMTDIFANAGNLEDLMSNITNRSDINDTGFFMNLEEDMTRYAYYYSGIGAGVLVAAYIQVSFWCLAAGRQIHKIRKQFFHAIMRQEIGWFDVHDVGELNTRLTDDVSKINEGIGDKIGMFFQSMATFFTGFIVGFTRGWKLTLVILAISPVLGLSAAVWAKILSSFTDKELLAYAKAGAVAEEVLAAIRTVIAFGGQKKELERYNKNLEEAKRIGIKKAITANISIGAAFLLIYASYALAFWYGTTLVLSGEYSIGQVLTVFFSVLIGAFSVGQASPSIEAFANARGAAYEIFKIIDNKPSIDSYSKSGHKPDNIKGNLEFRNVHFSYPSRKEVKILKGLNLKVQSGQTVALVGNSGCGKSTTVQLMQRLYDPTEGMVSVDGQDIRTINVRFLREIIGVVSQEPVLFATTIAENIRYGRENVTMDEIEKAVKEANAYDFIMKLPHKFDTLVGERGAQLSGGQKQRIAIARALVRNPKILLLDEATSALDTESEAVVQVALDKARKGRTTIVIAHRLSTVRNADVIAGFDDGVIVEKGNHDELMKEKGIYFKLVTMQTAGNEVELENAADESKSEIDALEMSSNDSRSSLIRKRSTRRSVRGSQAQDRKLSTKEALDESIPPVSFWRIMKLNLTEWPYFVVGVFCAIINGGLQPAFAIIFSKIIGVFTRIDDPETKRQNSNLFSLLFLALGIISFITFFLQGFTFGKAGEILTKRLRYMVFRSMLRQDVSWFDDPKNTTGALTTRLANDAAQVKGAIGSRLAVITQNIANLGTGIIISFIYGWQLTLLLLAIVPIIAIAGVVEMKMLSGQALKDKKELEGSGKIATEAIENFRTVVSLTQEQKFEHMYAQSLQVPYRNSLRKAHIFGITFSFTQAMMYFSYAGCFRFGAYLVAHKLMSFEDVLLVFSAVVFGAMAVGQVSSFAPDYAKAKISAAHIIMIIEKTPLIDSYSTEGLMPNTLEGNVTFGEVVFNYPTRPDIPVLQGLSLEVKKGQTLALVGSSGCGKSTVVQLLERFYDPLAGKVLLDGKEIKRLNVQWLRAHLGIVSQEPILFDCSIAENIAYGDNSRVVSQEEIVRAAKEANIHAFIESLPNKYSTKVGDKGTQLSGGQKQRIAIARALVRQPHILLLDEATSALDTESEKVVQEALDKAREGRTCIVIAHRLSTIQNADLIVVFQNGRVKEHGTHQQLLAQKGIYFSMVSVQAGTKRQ

EC50: 5.3 µM
SMILES: CNC(=O)CN1CCC(Oc2cc3c(Nc4cccc(Cl)c4F)ncnc3cc2OC)CC1 [sapitinib]
